Source: patent US11529344B2, “EZH2 inhibitor combination therapies” (Pfizer Inc., priority 2017, dated 2022)
“Also recorded” adds a separate entry of the source.

Experiments:
[1] = tested on: EZH2 (H3K27Me3 levels) in DMS114 SCLC cells containing wild-type EZH2; experiment: cells; details: Homo sapiens, DMS-114, 72 h, read-out: H3K27Me3 IC50 ± SD (nM) (n)
Experimental: SCLC cell line DMS114 was obtained from American Type Culture Collection (American Type Culture Collection, ATCC CRL-2066) and cultured in Waymouth's Medium MB 752/1 (Gibco/Life Technologies Cat. 11220-035), plus 10% Fetal Bovine Serum (FBS) (Gibco/Life Technologies Cat. 10082-147) and 1% Pen/Strep. […] All cells were maintained in a humidified incubator at 37° C. with 5% carbon dioxide (CO2).
Cells were plated at 1500 cells per well in 96-well black, flat, clear-bottom plates (Falcon, BD-353219). The following day, compounds were added to the wells at 3-fold dilution with a final concentration range from 3 μM to 0.1 nM, leaving some cells empty for controls: “DMSO only (1st and 2nd antibody)” and “DMSO only (2nd antibody only)”. […] After 2 hours, the secondary antibody was removed, the plates were washed again 5 times in PBST for 5 minutes each and then fluorescent signal was detected on an Odyssey LiCoR instrument (focus length 3 mm; using both 800 nm (for secondary) and 700 nm filters together (for DRAQ5). IC50 values were calculated using a four-parameter fit with GraphPad Prism version 7.02 and arithmetic mean of all biological replicates was calculated.
EZH2 inhibitor activity was determined in the cells by measurement of the relative amount of cellular H3K27Me3 levels.

DMS114 SCLC xenograft = tested on: DMS114 SCLC xenograft
From the text: • (i) Compound Formulation: Compound 1 was formulated as a wet-milled nanosuspension (24 hr milling in 2.5% w/v polyvinyl pyrrolidone (PVP), 0.5% w/v Macrogol 15 Hydroxystearate (Kolliphor HS15) aqueous, with <1 μm particle-size distribution (PSD; ˜650 nm median diameter (d50)) for oral gavage administration. • (ii) Cell Implant, Compound Dosing and Tissue Collection: Immune deficient female mice with a severe combined immunodeficiency (SCID) mutation in a non-obese diabetic background (NOD SCID; 6 to 8 week old; NOD.CB17-Prkdcscid/NCrCrl from Charles River Laboratories) received a subcutaneous (SC) implant of 7.5×10^6 DMS114 cells (in 1:1 matrigel (Trevigen, Cultrex BME Path Clear®, Lot #: 30625F14), total volume 200 μl) into the right flank. Tumor volume and body weight were measured twice a week. On Day 20 post implant, 64 mice were randomized, based on tumor size at a geometric mean (geomean) of about 160 mm^3, into 6 groups corresponding to dose (Table 1). Compounds were administered at 10 ml/kg by oral gavage (Compound 1; BID ( 7/17 hours apart)) or intraperitoneal injection (cisplatin), respectively. The cisplatin dosing schedule was once a week for 3 weeks (Q7Dx3) and started 7 days after the randomization and treatment initiation with Compound 1.
On Day 55, study groups 1, 2, 3 and 4 were terminated (Table 1). Tumor (snap frozen) samples were collected at 4 hours post last dose for pharmacodynamic (PD) analysis. […] Tumor samples from groups 5 and 6 were collected 3 hours post last dose depending on available tumor sizes. All procedures performed on these animals were in accordance with regulations and established guidelines and were reviewed and approved by Pfizer's Institutional Animal Care and Use Committee. • (iii) Data Interpretation: For each experiment, calculations were performed and graphs created in Microsoft Excel and GraphPad Prism version 7.02 respectively. The tumor volume was calculated as 0.5×length×width^2. Tumor growth inhibition (TGI) was determined by the formula: % TGI=[1−(Vtx−Vt0/Vcx−Vc0)]×100, where Vc, Vt are the geometric means of control and treated groups. X=day X on study and 0=initial day of dosing. ELISA Assay: • (i) Histone Extraction: Histone extraction was performed using the EpiQuick Histone Extraction Kit (Epigentek OP0006). Frozen tumor samples were cut and homogenized using cold mortar and pestle on dry-ice. The homogenized mixture was transferred to a 1.5 mL tube in 1× Pre-Lysis Buffer (200 mg/mL) containing phenylmethylsulfonyl fluoride (PMSF). Samples were gently mixed, incubated on ice for 15 minutes, and spun down at 3,000 rpm for 5 minutes at 4° C. The tissue pellet was resuspended in 3 volumes (approximately 200 μL per 100 mg of tissue) of lysis buffer from the Histone Extraction Kit, incubated on ice for 30 minutes, and spun down at 12,000 rpm for 5 minutes at 4° C. Balance-DTT buffer was prepared by adding DTT Solution to balance buffer at a 1:500 ratio. The supernatant (containing acid soluble proteins) was transferred to a new 1.5 mL tube and 0.3 volumes of Balance-dithiothreitol (DTT) buffer from the Histone Extraction Kit were immediately added to each sample. The tumor lysate was briefly sonicated for 4 cycles (30 seconds on and 30 seconds off) at high intensity using the Bioruptor Plus (Diagenode #601020001). Extracts were aliquoted and stored at −20° C. (short term) or −80° C. (long term). Protein concentration was quantified using the Coomassie Plus (Bradford) Assay Kit (Thermo #23236). • (ii) H3K27Me3 and Me2 ELISA Assay: Histone extracts were diluted to a final concentration of 400 ng (or 800 ng) in 100 μL of coating buffer (phosphate buffered saline (PBS) containing 0.05% bovine serum albumin (BSA)).

[2] = tested on: SLFN11 expression in SCLC cell lines; experiment: SLFN11 western blotting; assay type: cell-based; details: 500 nM for 7 days, several SCLC cell lines
Experimental: SCLC cell lines were treated with 500 nM of Compound 1 in DMSO for 7 days and changes in SLFN11 protein levels were then assessed using western blotting. After drug treatment, cells were trypsized (adherent cells), harvested by centrifugation at 2000 rpm at room temperature, washed with PBS, followed by collection of cell pellets by centrifugation. Cell pellets were re-suspended in appropriate volume of RIPA buffer (Sigma; Catalogue #R0278; 100 ul per 5-10×10^5 cells), incubated on ice for 10-15 min, centrifuged at 12,000 g and 4° C. for 10 min and then supernatant was collected. 15 ug of total protein lysates was run on 4-12% NuPAGE™ Bis-Tris protein gel (NP0336Box) in 1×NuPAGE™ MOPS SDS Running Buffer (NP0001). Gels were run on ice at 80V for 20 minutes and then 150V for 60 minutes. […] The signal was detected using the ECL system (Thermo-34078 and -34096) and imaged on the ImageQuant LAS400 imager.
To understand the potential mechanisms responsible for EZH2i synergy observed with chemotherapy agents, we assessed the effects of Compound 1 treatment on SLFN11 expression, a sensitizer to DNA damaging agents. Several SCLC cell lines were treated with 500 nM of Compound 1 for 7 days and changes in SLFN11 protein levels were assessed using western blotting according to the methodology described above.

COc1cc(C)[nH]c(=O)c1CN1CCc2c(Cl)cc([C@H](OC)C3COC3)c(Cl)c2C1=O [Compound 1, 5,8-dichloro-2-[(4-methoxy-6-methyl-2-oxo-1,2-dihydro-pyridin-3-yl)methyl]-7-[(R)-methoxy(oxetan-3-yl)methyl]-3,4-dihydroisoquinolin-1(2H)-one]
IC50 [1]: 9.48 nM | TGI by Day 55 (DMS114 SCLC xenograft; Compound 1 100 mg/kg BID PO, cisplatin 4 mg/kg IP Q7Dx3, alone or combined): 50% | anti-tumor benefit vs vehicle control group (DMS114 SCLC xenograft; Compound 1 100 mg/kg BID and 300 mg/kg BID, Day 55): significant anti-tumor benefit | tolerability / body weight loss (DMS114 SCLC xenograft; Compound 1 PO BID, cisplatin 4 mg/kg IP Q7Dx3, combination with Compound 1 100 mg/kg BID): well tolerated with limited bodyweight loss; also recorded: minimal toxicity | complete tumor regressions (DMS114 SCLC xenograft; Compound 1 monotherapy arms, 30, 100 and 300 mg/kg BID): No complete tumor regressions | tumors regressed or progressed compared to the starting tumor burden (DMS114 SCLC xenograft; Day 55, Compound 1 100 mg/kg BID, cisplatin 4 mg/kg Q7Dx3): all tumors had progressed | survival benefit, Log-rank test (Mantel-Cox) (DMS114 SCLC xenograft; survival cut-off at 500 mm^3 tumor burden): did not reach the P<0.05 significance level | median survival (DMS114 SCLC xenograft; survival cut-off at 500 mm^3 tumor burden, Compound 1 100 mg/kg BID, cisplatin 4 mg/kg Q7Dx3): 39 days | SLFN11 protein expression [2]: strong induction of SLFN11 expression
